Test results as given in US6608061B2, “Bisaryl compound and medicament for cancer treatment comprising the same” (Kyoma Hakko Kogyo Co., Ltd., priority 1997, dated 2003).
pIC50: −log10 of the molar value. Read-outs that look alike come from different tables or passages of the source.

Tests used:
HeLa S3 cells = experiment: Test for growth inhibition of HeLa S3 cells; format: cell-based; settings: for pIC50: HeLa S3 cells, 72 hours with test compound, Cell Proliferation Kit II, read-out: Cell growth inhibition (IC50)
Experimental: Test for Growth Inhibition of Hela S3 Cells
HeLa S3 cells prepared at 1×10^4 cells/ml in MEM culture medium containing 10% fetal bovine serum and 2 mM glutamine were added to each well of a 96-well microtiter plate (0.1 ml for each well). The cells were cultured at 37° C. in a CO2 incubator for 24 hours, and then 0.05 ml of test compound appropriately diluted with the above medium was added to each well, and then the mixture was cultured at 37° C. in a CO2 incubator for 72 hours. After the culture supernatant was removed, each well was washed with 0.1 ml of PBS buffer twice, and 0.1 ml of the aforementioned medium was added to each well again.
Cell Proliferation Kit II (Boehringer Mennheim) was used for measurement of cell number in each well. After a coloring reaction reagent was added, the plate was warmed to 37° C. in a CO2 incubator for 3 hours. Then, absorbances at 490 nm and 655 nm were measured by a microplate reader, and a value (difference of absorbance) was calculated for each well by subtracting the absorbance at […] from the absorbance at 490 nm. By comparing the differences of absorbance for cells without treatment and cells treated with a test compound at a known concentration, a concentration of test compound which inhibited the cell growth by 50% was calculated, and the value obtained was determined as IC50. The values of RNR inhibitory activity obtained in Example 8, and the values of cell growth inhibitory activity obtained in Example 9 are shown in the following tables (the compound numbers used in the tables correspond to the compound numbers shown in the aforementioned tables).

[1] = target: T1, human RNR (purified R1 and R2 subunits) (Homo sapiens, UniProt P23921+P31350); experiment: In vitro measurement of human RNR inhibitory activity (conversion of CDP to dCDP, HPLC); format: biochemical; settings: 100 μM CDP, 37° C., 30 minutes, read-out: RNR Inhibition (IC50)
T1 construct: made in house; host or cells: Escherichia coli BL21(λDE3)pLysS, plasmids pETR1 and pETR2 (pET3a backbone)
T1 sequence (P23921 1-792): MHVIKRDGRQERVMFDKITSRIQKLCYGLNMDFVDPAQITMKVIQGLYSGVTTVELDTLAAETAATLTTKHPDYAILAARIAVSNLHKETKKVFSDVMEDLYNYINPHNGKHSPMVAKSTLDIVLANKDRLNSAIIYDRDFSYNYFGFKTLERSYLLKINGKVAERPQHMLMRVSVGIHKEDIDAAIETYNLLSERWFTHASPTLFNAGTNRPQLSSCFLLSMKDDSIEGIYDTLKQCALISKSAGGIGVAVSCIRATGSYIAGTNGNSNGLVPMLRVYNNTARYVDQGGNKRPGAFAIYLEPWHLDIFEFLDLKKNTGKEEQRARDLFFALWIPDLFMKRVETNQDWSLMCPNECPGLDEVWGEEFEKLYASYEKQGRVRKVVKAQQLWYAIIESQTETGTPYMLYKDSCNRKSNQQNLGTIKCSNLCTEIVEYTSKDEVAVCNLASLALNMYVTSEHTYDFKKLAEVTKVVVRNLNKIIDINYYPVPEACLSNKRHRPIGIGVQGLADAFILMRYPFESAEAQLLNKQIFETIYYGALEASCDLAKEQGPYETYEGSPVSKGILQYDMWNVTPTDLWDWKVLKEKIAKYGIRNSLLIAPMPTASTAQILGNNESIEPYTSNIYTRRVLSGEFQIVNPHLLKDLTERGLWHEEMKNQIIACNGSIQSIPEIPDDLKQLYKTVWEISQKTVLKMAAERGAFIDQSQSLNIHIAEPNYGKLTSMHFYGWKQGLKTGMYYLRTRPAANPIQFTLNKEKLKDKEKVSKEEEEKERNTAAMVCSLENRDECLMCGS
T1 sequence (P31350 1-389): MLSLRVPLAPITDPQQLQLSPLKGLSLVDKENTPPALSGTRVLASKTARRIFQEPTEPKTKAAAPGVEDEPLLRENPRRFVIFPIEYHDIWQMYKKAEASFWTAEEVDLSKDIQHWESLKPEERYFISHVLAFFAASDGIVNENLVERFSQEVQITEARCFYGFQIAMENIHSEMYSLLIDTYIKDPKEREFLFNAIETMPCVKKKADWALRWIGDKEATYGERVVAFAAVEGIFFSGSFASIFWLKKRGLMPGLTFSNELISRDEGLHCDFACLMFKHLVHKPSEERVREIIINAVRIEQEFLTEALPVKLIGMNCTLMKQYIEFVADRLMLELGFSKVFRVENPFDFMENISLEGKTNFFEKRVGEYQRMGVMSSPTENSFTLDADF

[2] = tested on: human ovary cancer A2780 cells; experiment: Antineoplastic effect against human ovary cancer A2780 cells transplanted to nude mice; format: in vivo, nude mice BALB/cAJcl-nu; settings: Mus musculus, read-out: Antitumor activity T/C
Excerpt: Antineoplastic Effect Against Human Ovary Cancer A2780 Cells
2 mm cubes (tumor fragments of 8 mm^3) of human ovary cancer A2780 cells were subcutaneously transplanted to nude mice BALB/cAJcl-nu (CLEA JAPAN) in the abdomens. When the tumor volume reached to from 50 to 300 mm^3 after the transplantation, the mice were arbitrarily divided into groups each consisting of 5 mice, and intraperitoneally administered with a drug solution once a day for 5 days. After weighing compounds, the drug solution was prepared before use by dissolving the drug in 99.5% ethanol (final concentration: 5%, analytical grade, Kanto Kagaku) or N,N-dimethylacetamide (final concentration: 5%, analytical grade, Kanto Kagaku), adding CREMOPHOR EL (a derivative of caster oil and ethylene oxide, final concentration: 10%, Sigma Chemical) to the solution, and suspending the solution in physiological saline (Otsuka Physiological Saline for Injection, Otsuka Pharmaceutical). For evaluation of the effect, a tumor volume was calculated in accordance with Equation 1, a ratio of tumor volume (V) after the administration of drug solution to tumor volume (V0) before the administration of drug solution was calculation (V/V0), and the ratio was compared with that for the untreated group to determine T/C (Equation 2). In the table, administration dose, T/C and evaluation day are shown. [formula]

[3] = tested on: human lung cancer Lu-65 cells; experiment: Antineoplastic effect against human lung cancer Lu-65 cells transplanted to nude mice; format: in vivo, nude mice BALB/cAJcl-nu; settings: Lu-65 s.c. in nude mice; 1000 (500 × 2) mg/kg/day intraperitoneally twice a day for 5 days; evaluation day 7
Excerpt: Antineoplastic Effect Against Human Lung Cancer Lu-65 Cells
2 mm cubes (tumor fragments of 8 mm^3) of human lung cancer Lu-65 cells were subcutaneously transplanted to nude mice BALB/cAJcl-nu (CLEA JAPAN) on their abdomens. When the tumor volume reached to from 50 to 300 mm^3 after the transplantation, the mice were arbitrarily divided into groups each consisting of 5 mice, and intraperitoneally administered with a drug solution twice a day for 5 days. After weighing compounds, the drug solution was prepared before use by dissolving the drug in 99.5% ethanol (final concentration: 5%, analytical grade, Kanto Kagaku), adding CREMOPHOR EL (a derivative of caster oil and ethylene oxide, final concentration: 10%, Sigma Chemical) to the solution, and suspending the solution in physiological saline (Otsuka Physiological Saline for Injection, Otsuka Pharmaceutical). For evaluation of the effect, a tumor volume was calculated in accordance with Equation 1, a ratio of tumor volume (V) after the administration of drug solution to tumor volume (V0) before the administration of drug solution was calculated (V/V0), and the ratio was compared with that for the untreated group to determine T/C (Equation 2). [formula]

[4] = ip, 96 h, A2780 s.c. in nude mice, 500 mg/kg/day intraperitoneally once a day for 5 days, evaluation day 4
[5] = ip, 168 h, A2780 s.c. in nude mice, 500 mg/kg/day intraperitoneally once a day for 5 days, evaluation day 7

Row | pIC50 [1] | pIC50 (HeLa S3 cells; Homo sapiens, HeLa S3, 72 h) | Structure (SMILES) | response vs control in vivo at 500 mg/kg/day [2, 4] [%] | further results
1 | 5.92 | 5.66 | CCCN(CCSc1ccc(O)cc1)CCSc1ccc(O)cc1 [Compound 72] | 50 | 
2 | 7.22 | 5.62 | N#CCN(CCSc1ccc(O)cc1)CCSc1ccc(O)cc1 [Compound 77] | 54 | 
3 | 6.51 | 5.79 | NC(=O)CCN(CCSc1ccc(O)cc1)CCSc1ccc(O)cc1 [Compound 78] | 53 | 
4 | 5.86 | 5.51 | CN(C)C(=O)CCN(CCSc1ccc(O)cc1)CCSc1ccc(O)cc1 [Compound 79] | 40 | 
5 | 5.77 | 5.57 | Oc1ccc(SCCN(CCSc2ccc(O)cc2)Cc2ccncc2)cc1 [Compound 91] | 48 | 
6 | 6.34 | 5.40 | Oc1ccc(CN(CCSc2ccc(O)cc2)CCSc2ccc(O)cc2)cc1 [Compound 94] |  | response vs control in vivo at 500 mg/kg/day [2, 5]: 53%
7 |  |  | NC(=O)CN(CCSc1ccc(O)cc1)CCSc1ccc(O)cc1 [Compound 97] |  | pIC50 (HeLa S3 cells): 6.06; melting point: 105 to 106 °C; response vs control in vivo at 500 mg/kg/day [2, 5]: 43%
8 | 5.80 | 5.30 | Oc1ccc(SCCN(CCSc2ccc(O)cc2)Cc2ccccn2)cc1 [Compound 100] |  | melting point: 80 to 81 °C
9 | 6.16 | 5.85 | OCCN(CCSc1ccc(O)cc1)CCSc1ccc(O)cc1 [Compound 102] |  | response vs control in vivo at 500 mg/kg/day [2, 5]: 47%
10 | 5.68 | 5.76 | COCCCN(CCSc1ccc(O)cc1)CCSc1ccc(O)cc1 [Compound 103] | 50 | 
11 | 5.86 | 4.77 | Oc1ccc(SCCOCCSc2ccc(O)c(F)c2)cc1F [Compound 190] |  | melting point: 87 to 88 °C
12 | 5.57 | 5.51 | NC(=O)C1CCCCN1C(=O)CN(CCSc1ccc(O)cc1)CCSc1ccc(O)cc1 (stereo not shown) [Compound 209] |  | response vs control in vivo at 500 mg/kg/day [2, 5]: 50%
13 | 5.49 | 5.52 | O=C(CN(CCSc1ccc(O)cc1)CCSc1ccc(O)cc1)Nc1ncccn1 [Compound 211] |  | response vs control in vivo at 500 mg/kg/day ([2]; ip, 216 h, A2780 s.c. in nude mice, 500 mg/kg/day intraperitoneally once a day for 5 days, evaluation day 9): 37%

Row | Structure (SMILES) | pIC50 [1] | pIC50 (HeLa S3 cells; Homo sapiens, HeLa S3, 72 h) | response vs control in vivo at 500 mg/kg/day [2, 4] [%] | further results
14 | Oc1ccc(SCCOCCSc2ccc(O)cc2)cc1 [Compound 27] | 6.30 |  |  | IC50 (HeLa S3 cells; Homo sapiens, HeLa S3, 72 h, read-out: Cell growth inhibition (IC50, μM)): 1.53 µM; response vs control in vivo at 500 mg/kg/day ([2]; A2780, ip, 168 h): 46%; Antitumor activity T/C [3]: 0.25
